Experimental data taken from ChEMBL document CHEMBL5543142, “Discovery of YFJ-36: Design, Synthesis, and Antibacterial Activities of Catechol-Conjugated β-Lactams against Gram-Negative Bacteria” (J Med Chem, 2024).

Key:
[1] = AUC (0 to infinity) in ICR mouse at 20 mg/kg,iv administration measured upto 4 hrs by LC-MS/MS analysis; format: ADME, organism-based; settings: in vivo
[2] = Clearance in ICR mouse at 20 mg/kg,iv administration measured upto 4 hrs by LC-MS/MS analysis; format: ADME, organism-based; settings: in vivo
[3] = Half life in ICR mouse at 20 mg/kg,iv administration measured upto 4 hrs by LC-MS/MS analysis; format: ADME, organism-based; settings: in vivo
[4] = MRT in ICR mouse at 20 mg/kg,iv administration measured upto 4 hrs by LC-MS/MS analysis; format: ADME, organism-based; settings: in vivo
[5] = Volume of distribution at steady state in ICR mouse at 20 mg/kg,iv administration measured upto 4 hrs by LC-MS/MS analysis; format: ADME, organism-based; settings: in vivo, read-out: Vdss
[6] = AUC (0 to infinity) in Sprague-Dawley rat at 5 mg/kg,iv administration measured upto 4 hrs by LC-MS/MS analysis; format: ADME, organism-based; settings: in vivo
[7] = Clearance in Sprague-Dawley rat at 5 mg/kg,iv administration measured upto 4 hrs by LC-MS/MS analysis; format: ADME, organism-based; settings: in vivo
[8] = Half life in Sprague-Dawley rat at 5 mg/kg,iv administration measured upto 4 hrs by LC-MS/MS analysis; format: ADME, organism-based; settings: in vivo
[9] = MRT in Sprague-Dawley rat at 5 mg/kg,iv administration measured upto 4 hrs by LC-MS/MS analysis; format: ADME, organism-based; settings: in vivo
[10] = Volume of distribution at steady state in Sprague-Dawley rat at 5 mg/kg,iv administration measured upto 4 hrs by LC-MS/MS analysis; format: ADME, organism-based; settings: in vivo, read-out: Vdss
Acinetobacter baumannii [11] = assay: Antibacterial activity against multidrug-resistant Acinetobacter baumannii BM-2023-D2-010 infected in ICR mouse assessed as survival rate at 40 mg/kg,iv after 1 and 5 hour of post-infection measured after 7 days relative to control; format: functional; settings: time 7 day
Acinetobacter baumannii [12] = assay: Antibacterial activity against multidrug-resistant Acinetobacter baumannii BM-2023-D2-010 infected in ICR mouse assessed as survival rate at 28 mg/kg,iv after 1 and 5 hour of post-infection measured after 7 days relative to control; format: functional; settings: time 7 day
Acinetobacter baumannii [13] = assay: Antibacterial activity against multidrug-resistant Acinetobacter baumannii BM-2023-D2-010 infected in ICR mouse assessed as survival rate at 19.6 mg/kg,iv after 1 and 5 hour of post-infection measured after 7 days relative to control; format: functional; settings: time 7 day
Acinetobacter baumannii [14] = assay: Antibacterial activity against multidrug-resistant Acinetobacter baumannii BM-2023-D2-010 infected in ICR mouse assessed as survival rate at 13.7 mg/kg,iv after 1 and 5 hour of post-infection measured after 7 days relative to control; format: functional; settings: time 7 day
Acinetobacter baumannii [15] = assay: Antibacterial activity against multidrug-resistant Acinetobacter baumannii BM-2023-D2-010 infected in ICR mouse assessed as survival rate at 9.6 mg/kg,iv after 1 and 5 hour of post-infection measured after 7 days relative to control; format: functional; settings: time 7 day
Acinetobacter baumannii [16] = assay: Antibacterial activity against multidrug-resistant Acinetobacter baumannii BM-2023-D2-010 infected in ICR mouse assessed as survival rate at 6.72 mg/kg,iv after 1 and 5 hour of post-infection measured after 7 days relative to control; format: functional; settings: time 7 day
Acinetobacter baumannii [17] = assay: Antibacterial activity against multidrug-resistant Acinetobacter baumannii BM-2023-D2-010 infected in ICR mouse assessed as survival rate at 4.71 mg/kg,iv after 1 and 5 hour of post-infection measured after 7 days relative to control; format: functional; settings: time 7 day
Escherichia coli [18] = assay: Antibacterial activity against ESBL-producing multidrug-resistant Escherichia coli clinical isolate 14-1 assessed as inhibition of bacterial growth incubated for 18 to 20 hrs by two fold serial dilution assay; format: functional; settings: time 18-20 hrs
Escherichia coli [19] = assay: Antibacterial activity against ESBL-producing multidrug-resistant Escherichia coli clinical isolate 14-2 assessed as inhibition of bacterial growth incubated for 18 to 20 hrs by two fold serial dilution assay; format: functional; settings: time 18-20 hrs
Escherichia coli [20] = assay: Antibacterial activity against ESBL-producing multidrug-resistant Escherichia coli clinical isolate 14-4 assessed as inhibition of bacterial growth incubated for 18 to 20 hrs by two fold serial dilution assay; format: functional; settings: time 18-20 hrs
Klebsiella pneumoniae [21] = assay: Antibacterial activity against KPC-2 producing multidrug-resistant Klebsiella pneumoniae clinical isolate 15-1 assessed as inhibition of bacterial growth incubated for 18 to 20 hrs by two fold serial dilution assay; format: functional; settings: time 18-20 hrs
Klebsiella pneumoniae [22] = assay: Antibacterial activity against KPC-2 producing multidrug-resistant Klebsiella pneumoniae clinical isolate 15-2 assessed as inhibition of bacterial growth incubated for 18 to 20 hrs by two fold serial dilution assay; format: functional; settings: time 18-20 hrs
Klebsiella pneumoniae [23] = assay: Antibacterial activity against KPC-2 producing multidrug-resistant Klebsiella pneumoniae clinical isolate 15-5 assessed as inhibition of bacterial growth incubated for 18 to 20 hrs by two fold serial dilution assay; format: functional; settings: time 18-20 hrs
Escherichia coli [24] = assay: Antibacterial activity against Escherichia coli ATCC35218 assessed as inhibition of bacterial growth incubated for 18 to 20 hrs by two fold serial dilution assay; format: functional; settings: time 18-20 hrs
Pseudomonas aeruginosa [25] = assay: Antibacterial activity against IMP-4 producing multidrug-resistant Pseudomonas aeruginosa clinical isolate 17-13 assessed as inhibition of bacterial growth incubated for 18 to 20 hrs by two fold serial dilution assay; format: functional; settings: time 18-20 hrs
Pseudomonas aeruginosa [26] = assay: Antibacterial activity against IMP-4 producing multidrug-resistant Pseudomonas aeruginosa clinical isolate 17-1 assessed as inhibition of bacterial growth incubated for 18 to 20 hrs by two fold serial dilution assay; format: functional; settings: time 18-20 hrs
Pseudomonas aeruginosa [27] = assay: Antibacterial activity against IMP-4 producing multidrug-resistant Pseudomonas aeruginosa clinical isolate 19-17 assessed as inhibition of bacterial growth incubated for 18 to 20 hrs by two fold serial dilution assay; format: functional; settings: time 18-20 hrs
Acinetobacter baumannii [28] = assay: Antibacterial activity against OXA-23 producing multidrug-resistant Acinetobacter baumannii clinical isolate 17-2 assessed as inhibition of bacterial growth incubated for 18 to 20 hrs by two fold serial dilution assay; format: functional; settings: time 18-20 hrs
Acinetobacter baumannii [29] = assay: Antibacterial activity against OXA-23 producing multidrug-resistant Acinetobacter baumannii clinical isolate 17-3 assessed as inhibition of bacterial growth incubated for 18 to 20 hrs by two fold serial dilution assay; format: functional; settings: time 18-20 hrs
Pseudomonas aeruginosa [30] = assay: Antibacterial activity against IMP-4 producing multidrug-resistant Pseudomonas aeruginosa clinical isolate 19-5 assessed as inhibition of bacterial growth incubated for 18 to 20 hrs by two fold serial dilution assay; format: functional; settings: time 18-20 hrs
Pseudomonas aeruginosa [31] = assay: Antibacterial activity against IMP-4 producing multidrug-resistant Pseudomonas aeruginosa clinical isolate 19-1 assessed as inhibition of bacterial growth incubated for 18 to 20 hrs by two fold serial dilution assay; format: functional; settings: time 18-20 hrs
Acinetobacter baumannii [32] = assay: Antibacterial activity against OXA-23 producing multidrug-resistant Acinetobacter baumannii clinical isolate 17-5 assessed as inhibition of bacterial growth incubated for 18 to 20 hrs by two fold serial dilution assay; format: functional; settings: time 18-20 hrs
Acinetobacter baumannii [33] = assay: Antibacterial activity against OXA-23 producing multidrug-resistant Acinetobacter baumannii clinical isolate 17-6 assessed as inhibition of bacterial growth incubated for 18 to 20 hrs by two fold serial dilution assay; format: functional; settings: time 18-20 hrs
Acinetobacter baumannii [34] = assay: Antibacterial activity against OXA-23 producing multidrug-resistant Acinetobacter baumannii clinical isolate 17-7 assessed as inhibition of bacterial growth incubated for 18 to 20 hrs by two fold serial dilution assay; format: functional; settings: time 18-20 hrs
Acinetobacter baumannii [35] = assay: Antibacterial activity against OXA-23 producing multidrug-resistant Acinetobacter baumannii clinical isolate 17-8 assessed as inhibition of bacterial growth incubated for 18 to 20 hrs by two fold serial dilution assay; format: functional; settings: time 18-20 hrs
Klebsiella pneumoniae [36] = assay: Antibacterial activity against KPC-2 producing multidrug-resistant Klebsiella pneumoniae clinical isolate 15-3 assessed as inhibition of bacterial growth incubated for 18 to 20 hrs by two fold serial dilution assay; format: functional; settings: time 18-20 hrs
Escherichia coli [37] = assay: Antibacterial activity against Escherichia coli NCTC-13353 assessed as inhibition of bacterial growth incubated for 18 to 20 hrs in presence of CAMHB medium by two fold serial dilution assay; format: functional; settings: time 18-20 hrs
Escherichia coli [38] = assay: Antibacterial activity against Escherichia coli ATCC-35218 assessed as inhibition of bacterial growth incubated for 18 to 20 hrs in presence of CAMHB medium by two fold serial dilution assay; format: functional; settings: time 18-20 hrs
Klebsiella pneumoniae [39] = assay: Antibacterial activity against Klebsiella pneumoniae ATCC BAA-1898 assessed as inhibition of bacterial growth incubated for 18 to 20 hrs in presence of CAMHB medium by two fold serial dilution assay; format: functional; settings: time 18-20 hrs
Escherichia coli [40] = assay: Antibacterial activity against Escherichia coli NCTC-13353 assessed as inhibition of bacterial growth incubated for 18 to 20 hrs in presence of iron-depleted CAMHB medium by two fold serial dilution assay; format: functional; settings: time 18-20 hrs
Escherichia coli [41] = assay: Antibacterial activity against Escherichia coli ATCC-35218 assessed as inhibition of bacterial growth incubated for 18 to 20 hrs in presence of iron-depleted CAMHB medium by two fold serial dilution assay; format: functional; settings: time 18-20 hrs
Klebsiella pneumoniae [42] = assay: Antibacterial activity against Klebsiella pneumoniae ATCC BAA-1898 assessed as inhibition of bacterial growth incubated for 18 to 20 hrs in presence of iron-depleted CAMHB medium by two fold serial dilution assay; format: functional; settings: time 18-20 hrs
Escherichia coli [43] = assay: Antibacterial activity against Escherichia coli ATCC-35218 infected in ICR mouse assessed as inhibition of bacterial growth at iv after 1 and 5 hour of post-infection measured after 7 days; format: functional; settings: ATCC-35218, 168 h, time 7 day
Acinetobacter baumannii [44] = assay: Antibacterial activity against multidrug-resistant Acinetobacter baumannii BM-2023-D2-010 infected in ICR mouse assessed as inhibition of bacterial growth at iv after 1 and 5 hour of post-infection measured after 7 days; format: functional; settings: BM-2023-D2-010, 168 h, time 7 day
[45] = Plasma protein binding in mouse incubated for 35 mins by LC-MS/MS analysis; format: ADME, cell-free; settings: read-out: PPB (converted)
hERG (KCNH2) = hERG (KCNH2) (Homo sapiens, UniProt Q12809); assay: Inhibition of hERG at 40 uM by whole cell Qpatch assay relative to control; format: toxicity
hERG (KCNH2), sequence (Q12809 whole entry): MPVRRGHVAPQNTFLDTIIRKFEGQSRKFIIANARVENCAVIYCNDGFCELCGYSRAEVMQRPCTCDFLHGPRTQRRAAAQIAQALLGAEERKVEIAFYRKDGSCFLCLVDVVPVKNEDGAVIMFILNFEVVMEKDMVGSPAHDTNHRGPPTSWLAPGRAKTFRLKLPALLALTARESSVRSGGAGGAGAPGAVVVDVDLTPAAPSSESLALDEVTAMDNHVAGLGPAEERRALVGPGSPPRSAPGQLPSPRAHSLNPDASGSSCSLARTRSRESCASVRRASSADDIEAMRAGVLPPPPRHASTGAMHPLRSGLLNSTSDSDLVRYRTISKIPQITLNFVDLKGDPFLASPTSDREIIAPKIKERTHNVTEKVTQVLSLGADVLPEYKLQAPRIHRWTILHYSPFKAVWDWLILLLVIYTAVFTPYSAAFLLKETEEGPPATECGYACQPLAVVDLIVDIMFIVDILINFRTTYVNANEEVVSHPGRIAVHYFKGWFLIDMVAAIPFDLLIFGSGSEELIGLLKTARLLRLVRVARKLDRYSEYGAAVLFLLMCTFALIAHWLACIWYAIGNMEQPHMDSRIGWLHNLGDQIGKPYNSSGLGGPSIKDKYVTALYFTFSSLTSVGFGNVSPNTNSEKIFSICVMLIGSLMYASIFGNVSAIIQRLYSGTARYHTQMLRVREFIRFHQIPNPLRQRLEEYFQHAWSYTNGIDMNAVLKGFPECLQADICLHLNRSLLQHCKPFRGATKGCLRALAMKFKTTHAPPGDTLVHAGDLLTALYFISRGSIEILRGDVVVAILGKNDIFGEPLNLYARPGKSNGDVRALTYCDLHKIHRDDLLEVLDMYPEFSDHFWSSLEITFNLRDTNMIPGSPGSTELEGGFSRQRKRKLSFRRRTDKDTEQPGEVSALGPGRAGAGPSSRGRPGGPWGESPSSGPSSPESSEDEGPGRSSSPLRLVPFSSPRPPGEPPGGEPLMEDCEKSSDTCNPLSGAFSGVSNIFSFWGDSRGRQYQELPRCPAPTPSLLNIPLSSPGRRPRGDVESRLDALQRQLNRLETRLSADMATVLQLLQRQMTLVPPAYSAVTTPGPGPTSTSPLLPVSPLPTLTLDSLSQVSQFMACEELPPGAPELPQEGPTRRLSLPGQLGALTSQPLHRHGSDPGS

[46] = target: Voltage-gated inwardly rectifying potassium channel KCNH2 (Homo sapiens, UniProt Q12809); assay: Inhibition of hERG by whole cell Qpatch assay; format: toxicity
Voltage-gated inwardly rectifying potassium channel KCNH2, sequence (Q12809 whole entry): as above

Acinetobacter baumannii [47] = assay: Antibacterial activity against multidrug-resistant Acinetobacter baumannii BM-2023-D2-010 infected in ICR mouse assessed as inhibition of bacterial growth by measuring its effective dose at iv after 1 and 5 hour of post-infection measured after 7 days; format: functional; settings: BM-2023-D2-010, 168 h, time 7 day

Nc1nc(/C(=N/O[C@@H](C(=O)[O-])C2CCC(F)(F)CC2)C(=O)N[C@@H]2C(=O)N3C(C(=O)O)=C(CSCCNC(=O)c4ccc(O)c(O)c4Cl)CS[C@H]23)cs1.[Na+]
AUC(0-inf) [1]: 8910 ng·h/mL
clearance [2]: 49.8 mL/min/kg
half-life [3]: 29.4 min
MRT [4]: 9.6 min
Vd [5]: 0.488 L/kg
AUC(0-inf) [6]: 2260 ng·h/mL
clearance [7]: 38.7 mL/min/kg
half-life [8]: 13.8 min
MRT [9]: 9.6 min
Vd [10]: 0.37 L/kg
Activity (Acinetobacter baumannii [11]): 100%
Activity (Acinetobacter baumannii [12]): 100%
Activity (Acinetobacter baumannii [13]): 100%
Activity (Acinetobacter baumannii [14]): 100%
Activity (Acinetobacter baumannii [15]): 70%
Activity (Acinetobacter baumannii [16]): 30%
Activity (Acinetobacter baumannii [17]): 20%

Nc1nc(/C(=N/O[C@@H](C(=O)O)C2CCC(F)(F)CC2)C(=O)N[C@@H]2C(=O)N3C(C(=O)O)=C(CSCCNC(=O)c4ccc(O)c(O)c4Cl)CS[C@H]23)cs1.O=C(O)C(F)(F)F
MIC (Escherichia coli [18]): 0.25 µg/mL
MIC (Escherichia coli [19]): 0.5 µg/mL
MIC (Escherichia coli [20]): 0.125 µg/mL
MIC (Klebsiella pneumoniae [21]): 0.25 µg/mL
MIC (Klebsiella pneumoniae [22]): 0.25 µg/mL
MIC (Klebsiella pneumoniae [23]): 0.5 µg/mL
MIC (Escherichia coli [24]): 0.25 µg/mL
MIC (Pseudomonas aeruginosa [25]): ≤ 0.03 µg/mL
MIC (Pseudomonas aeruginosa [26]): 8 µg/mL
MIC (Pseudomonas aeruginosa [27]): 0.25 µg/mL
MIC (Acinetobacter baumannii [28]): 0.5 µg/mL
MIC (Acinetobacter baumannii [29]): 0.25 µg/mL
MIC (Pseudomonas aeruginosa [30]): 1 µg/mL
MIC (Pseudomonas aeruginosa [31]): 2 µg/mL
MIC (Acinetobacter baumannii [32]): 0.25 µg/mL
MIC (Acinetobacter baumannii [33]): 1 µg/mL
MIC (Acinetobacter baumannii [34]): 0.5 µg/mL
MIC (Acinetobacter baumannii [35]): 0.5 µg/mL
MIC (Klebsiella pneumoniae [36]): 1 µg/mL
MIC (Escherichia coli [37]): 1 µg/mL
MIC (Escherichia coli [38]): 1 µg/mL
MIC (Klebsiella pneumoniae [39]): 4 µg/mL
MIC (Escherichia coli [40]): 0.25 µg/mL
MIC (Escherichia coli [41]): ≤ 0.03 µg/mL
MIC (Klebsiella pneumoniae [42]): 2 µg/mL
MIC (Escherichia coli [43]): 0.06 µg/mL
MIC (Acinetobacter baumannii [44]): 0.5 µg/mL
fraction unbound at 35 min [45]: 0.105
inhibition at 40 µM (hERG (KCNH2)): 6.67%
IC50 [46]: > 40 µM
ED50 (Acinetobacter baumannii [47]): 7.3 mg/kg
